Measurements taken from the supplement of paper PMC10307832.

Assays:
Experiment in all cases: relative viability (nuclei count vs DMSO), 5 days (fraction); higher = more cells survive
201T = tested on: 201T
How it was run: (§1)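 Lung cancer cell lines were pin-tool dosed in 1536-well plates on the day after seeding, with either a lone drug or a fixed anchor-drug dose plus five library-drug doses (not always all listed) in √10 steps. Nuclei were counted on 4× images after 5 days. Relative viability is the ratio of treated-well to vehicle-well nuclei counts, with each value a median of duplicate plates.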

BEN = tested on: BEN
How it was run: as §1

COR-L 105 = tested on: COR-L 105
How it was run: as §1

EKVX = tested on: EKVX
How it was run: as §1

EPLC-272H = tested on: EPLC-272H
How it was run: as §1

H3255 = tested on: H3255
How it was run: as §1

HCC-44 = tested on: HCC-44
How it was run: as §1

HCC-827 = tested on: HCC-827
How it was run: as §1

LCLC-97TM1 = tested on: LCLC-97TM1
How it was run: as §1

LOU-NH91 = tested on: LOU-NH91
How it was run: as §1

LU99A = tested on: LU99A
How it was run: as §1

NCI-H1437 = tested on: NCI-H1437
How it was run: as §1

NCI-H1666 = tested on: NCI-H1666
How it was run: as §1

NCI-H1975 = tested on: NCI-H1975
How it was run: as §1

NCI-H2085 = tested on: NCI-H2085
How it was run: as §1

NCI-H2087 = tested on: NCI-H2087
How it was run: as §1

NCI-H2170 = tested on: NCI-H2170
How it was run: as §1

NCI-H647 = tested on: NCI-H647
How it was run: as §1

PC-3 [JPC-3] = tested on: PC-3 [JPC-3]
How it was run: as §1

SW 1573 = tested on: SW 1573
How it was run: as §1

**Q.** `CCN(CC)CCCCNc1ncc2cc(-c3cc(OC)cc(OC)c3)c(NC(=O)NC(C)(C)C)nc2n1` + CC1(C)CCC(c2ccc(Cl)cc2)=C(CN2CCN(c3ccc(C(=O)NS(=O)(=O)c4ccc(N[C@H](CCN5CCOCC5)CSc5ccccc5)c(S(=O)(=O)C(F)(F)F)c4)cc3)CC2)C1 [Navitoclax] (partner 0.5 µM) was tested. Which relative viability (201T; first compound 0.01 µM) did it give?
**A.** 1.17

**Q.** What about the relative viability (201T; first compound 0.03162 µM) of the same molecule?
**A.** 1.21

**Q.** What about the relative viability (201T; first compound 0.1 µM) of the same molecule?
**A.** 1.24

**Q.** And the relative viability (201T; first compound 0.3162 µM)?
**A.** 1.23

**Q.** And the relative viability (201T; first compound 1 µM)?
**A.** 1.19

**Q.** And the relative viability (BEN; first compound 0.01 µM)?
**A.** 0.0624

**Q.** What about the relative viability (BEN; first compound 0.03162 µM) of the same molecule?
**A.** 0.0641

**Q.** What about the relative viability (BEN; first compound 0.1 µM) of the same molecule?
**A.** 0.0454

**Q.** What about the relative viability (BEN; first compound 0.3162 µM) of the same molecule?
**A.** 0.0573

**Q.** What about the relative viability (BEN; first compound 1 µM) of the same molecule?
**A.** 0.0385

**Q.** What about the relative viability (COR-L 105; first compound 0.01 µM) of the same molecule?
**A.** 0.811

**Q.** And the relative viability (COR-L 105; first compound 0.03162 µM)?
**A.** 0.81

**Q.** What about the relative viability (COR-L 105; first compound 0.1 µM) of the same molecule?
**A.** 0.83

**Q.** And the relative viability (COR-L 105; first compound 0.3162 µM)?
**A.** 0.872

**Q.** What about the relative viability (COR-L 105; first compound 1 µM) of the same molecule?
**A.** 0.883

**Q.** And the relative viability (EKVX; first compound 0.01 µM)?
**A.** 0.946

**Q.** And the relative viability (EKVX; first compound 0.03162 µM)?
**A.** 0.851

**Q.** And the relative viability (EKVX; first compound 0.1 µM)?
**A.** 1.01

**Q.** What about the relative viability (EKVX; first compound 0.3162 µM) of the same molecule?
**A.** 1.04

**Q.** What about the relative viability (EKVX; first compound 1 µM) of the same molecule?
**A.** 0.968

**Q.** And the relative viability (EPLC-272H; first compound 0.01 µM)?
**A.** 1.14

**Q.** What about the relative viability (EPLC-272H; first compound 0.1 µM) of the same molecule?
**A.** 1.07

**Q.** And the relative viability (EPLC-272H; first compound 0.3162 µM)?
**A.** 1.29

**Q.** What about the relative viability (EPLC-272H; first compound 1 µM) of the same molecule?
**A.** 0.995

**Q.** And the relative viability (H3255; first compound 0.01 µM)?
**A.** 0.496

**Q.** And the relative viability (H3255; first compound 0.03162 µM)?
**A.** 0.413

**Q.** What about the relative viability (H3255; first compound 0.1 µM) of the same molecule?
**A.** 0.65

**Q.** What about the relative viability (H3255; first compound 0.3162 µM) of the same molecule?
**A.** 0.729

**Q.** And the relative viability (H3255; first compound 1 µM)?
**A.** 0.502

**Q.** What about the relative viability (HCC-44; first compound 0.01 µM) of the same molecule?
**A.** 1.01

**Q.** What about the relative viability (HCC-44; first compound 0.03162 µM) of the same molecule?
**A.** 0.997

**Q.** And the relative viability (HCC-44; first compound 0.1 µM)?
**A.** 1.02

**Q.** And the relative viability (HCC-44; first compound 0.3162 µM)?
**A.** 1.1

**Q.** And the relative viability (HCC-44; first compound 1 µM)?
**A.** 0.937

**Q.** What about the relative viability (HCC-827; first compound 0.01 µM) of the same molecule?
**A.** 1.06

**Q.** What about the relative viability (HCC-827; first compound 0.03162 µM) of the same molecule?
**A.** 0.981

**Q.** And the relative viability (HCC-827; first compound 0.1 µM)?
**A.** 1.05

**Q.** And the relative viability (HCC-827; first compound 0.3162 µM)?
**A.** 0.993

**Q.** What about the relative viability (HCC-827; first compound 1 µM) of the same molecule?
**A.** 1.02

**Q.** And the relative viability (LCLC-97TM1; first compound 0.03162 µM)?
**A.** 0.356

**Q.** What about the relative viability (LCLC-97TM1; first compound 0.1 µM) of the same molecule?
**A.** 0.503

**Q.** What about the relative viability (LCLC-97TM1; first compound 0.3162 µM) of the same molecule?
**A.** 0.435

**Q.** And the relative viability (LCLC-97TM1; first compound 1 µM)?
**A.** 0.4

**Q.** And the relative viability (LOU-NH91; first compound 0.01 µM)?
**A.** 0.611

**Q.** And the relative viability (LOU-NH91; first compound 0.03162 µM)?
**A.** 0.674

**Q.** What about the relative viability (LOU-NH91; first compound 0.1 µM) of the same molecule?
**A.** 0.718

**Q.** What about the relative viability (LOU-NH91; first compound 0.3162 µM) of the same molecule?
**A.** 0.795

**Q.** And the relative viability (LOU-NH91; first compound 1 µM)?
**A.** 0.722

**Q.** What about the relative viability (LU99A; first compound 0.01 µM) of the same molecule?
**A.** 0.716

**Q.** And the relative viability (LU99A; first compound 0.03162 µM)?
**A.** 0.862

**Q.** What about the relative viability (LU99A; first compound 0.1 µM) of the same molecule?
**A.** 0.949

**Q.** And the relative viability (LU99A; first compound 0.3162 µM)?
**A.** 0.85

**Q.** And the relative viability (LU99A; first compound 1 µM)?
**A.** 0.69

**Q.** What about the relative viability (NCI-H1437; first compound 0.01 µM) of the same molecule?
**A.** 1.11

**Q.** What about the relative viability (NCI-H1437; first compound 0.03162 µM) of the same molecule?
**A.** 1.1

**Q.** And the relative viability (NCI-H1437; first compound 0.1 µM)?
**A.** 1.35

**Q.** What about the relative viability (NCI-H1437; first compound 0.3162 µM) of the same molecule?
**A.** 1.22

**Q.** What about the relative viability (NCI-H1437; first compound 1 µM) of the same molecule?
**A.** 1.04

**Q.** And the relative viability (NCI-H1666; first compound 0.01 µM)?
**A.** 1.03

**Q.** And the relative viability (NCI-H1666; first compound 0.03162 µM)?
**A.** 1.02

**Q.** What about the relative viability (NCI-H1666; first compound 0.1 µM) of the same molecule?
**A.** 0.972

**Q.** And the relative viability (NCI-H1666; first compound 0.3162 µM)?
**A.** 1.12

**Q.** What about the relative viability (NCI-H1666; first compound 1 µM) of the same molecule?
**A.** 0.871

**Q.** What about the relative viability (NCI-H1975; first compound 0.01 µM) of the same molecule?
**A.** 1.14

**Q.** What about the relative viability (NCI-H1975; first compound 0.03162 µM) of the same molecule?
**A.** 1.13

**Q.** And the relative viability (NCI-H1975; first compound 0.1 µM)?
**A.** 1.14

**Q.** And the relative viability (NCI-H1975; first compound 0.3162 µM)?
**A.** 1.23

**Q.** What about the relative viability (NCI-H1975; first compound 1 µM) of the same molecule?
**A.** 0.87

**Q.** What about the relative viability (NCI-H2085; first compound 0.01 µM) of the same molecule?
**A.** 1.08

**Q.** What about the relative viability (NCI-H2085; first compound 0.03162 µM) of the same molecule?
**A.** 1.22

**Q.** What about the relative viability (NCI-H2085; first compound 0.1 µM) of the same molecule?
**A.** 1.33

**Q.** And the relative viability (NCI-H2085; first compound 0.3162 µM)?
**A.** 1.22

**Q.** And the relative viability (NCI-H2085; first compound 1 µM)?
**A.** 1.06

**Q.** What about the relative viability (NCI-H2087; first compound 0.01 µM) of the same molecule?
**A.** 1.15

**Q.** And the relative viability (NCI-H2087; first compound 0.03162 µM)?
**A.** 1.12

**Q.** What about the relative viability (NCI-H2087; first compound 0.1 µM) of the same molecule?
**A.** 1.35

**Q.** And the relative viability (NCI-H2087; first compound 0.3162 µM)?
**A.** 1.23

**Q.** What about the relative viability (NCI-H2087; first compound 1 µM) of the same molecule?
**A.** 0.986

**Q.** And the relative viability (NCI-H2170; first compound 0.01 µM)?
**A.** 0.586

**Q.** And the relative viability (NCI-H2170; first compound 0.03162 µM)?
**A.** 0.75

**Q.** What about the relative viability (NCI-H2170; first compound 0.1 µM) of the same molecule?
**A.** 0.558

**Q.** And the relative viability (NCI-H2170; first compound 0.3162 µM)?
**A.** 0.641

**Q.** What about the relative viability (NCI-H2170; first compound 1 µM) of the same molecule?
**A.** 0.528

**Q.** And the relative viability (NCI-H647; first compound 0.01 µM)?
**A.** 1.12

**Q.** And the relative viability (NCI-H647; first compound 0.03162 µM)?
**A.** 1.14

**Q.** What about the relative viability (NCI-H647; first compound 0.1 µM) of the same molecule?
**A.** 1.41

**Q.** And the relative viability (NCI-H647; first compound 0.3162 µM)?
**A.** 1.21

**Q.** And the relative viability (NCI-H647; first compound 1 µM)?
**A.** 0.929

**Q.** What about the relative viability (PC-3 [JPC-3]; first compound 0.01 µM) of the same molecule?
**A.** 0.827

**Q.** And the relative viability (PC-3 [JPC-3]; first compound 0.03162 µM)?
**A.** 0.785

**Q.** What about the relative viability (PC-3 [JPC-3]; first compound 0.1 µM) of the same molecule?
**A.** 0.855

**Q.** And the relative viability (PC-3 [JPC-3]; first compound 0.3162 µM)?
**A.** 0.951

**Q.** And the relative viability (PC-3 [JPC-3]; first compound 1 µM)?
**A.** 1.02

**Q.** What about the relative viability (SW 1573; first compound 0.01 µM) of the same molecule?
**A.** 0.958

**Q.** What about the relative viability (SW 1573; first compound 0.03162 µM) of the same molecule?
**A.** 0.963

**Q.** And the relative viability (SW 1573; first compound 0.1 µM)?
**A.** 1.31

**Q.** And the relative viability (SW 1573; first compound 0.3162 µM)?
**A.** 1.25

**Q.** And the relative viability (SW 1573; first compound 1 µM)?
**A.** 1.01
